Measurements from US10281267B2, “Method for evaluating flow of skin, method for examining skin glow improvers, and skin glow improver” (Shiseido Company, Ltd., priority 2014, dated 2019).
“Also recorded” adds a separate entry of the source.

Experiments:
[1] = test system: horny layer cells; test: Screening of specular reflectance improvers: arithmetic average roughness (Sa) of exfoliated horny layer cells by AFM; assay type: cell-based; conditions: for screening result: specular reflectance improver: 100 μl sample on horny layer cells, 30 minutes at 37° C., nine types of cosmetic ingredients screened
Description: The surface roughness of skin can be determined by measuring the surface of horny layer cells sampled with a strip of adhesive tape and the like using a microscope such as an atomic force microscope. Surface roughness can be calculated in terms of arithmetic average roughness (Sa) as defined in ISO25178 by acquiring 3D-scanned images captured using an atomic force microscope, correcting the inclination of the 3D shape by subtracting those images applicable to a Gaussian filter having a half width of 2 μm, displaying the images, and calculating the average of absolute values of the Z axis for each XY coordinate.
First, the arithmetic average roughness (Sa) of horny layer cells is measured (S11). Next, a sample is applied to the horny layer cells (S12). Then, the arithmetic average roughness (Sa) of the horny layer cells to which the sample has been applied is measured (S13). Next, the rate of decrease of the arithmetic average roughness (Sa) of the horny layer cells to which the sample was applied is determined relative to the arithmetic average roughness of the horny layer cells to which the sample was not applied (S14).
On the other hand, horny layer cells were exfoliated from the cheeks of the subjects using adhesive strips (Post-It®, 3M Corp.). Next, double-sided adhesive tape was adhered to a slide glass and the exfoliated horny layer cells were transferred to the slide glass. Moreover, the arithmetic average roughness (Sa) of five horny layer cells was measured using an AFM attached to the Optelics H1200A 3CCD real color confocal microscope (Lasertec Corp.) followed by determination of the average value thereof.
Horny layer cells were exfoliated from the cheeks of subjects using adhesive strips (Post-It®, 3M Corp.). Next, double-sided adhesive tape was adhered to a slide glass and the exfoliated horny layer cells were transferred to the slide glass. Moreover, the arithmetic average roughness (Sa) of five horny layer cells was measured using an AFM attached to the Optelics H1200A 3CCD real color confocal microscope (Lasertec Corp.) followed by determination of the average value thereof. Next, 100 μl of a candidate sample were dropped onto the horny layer cells followed by incubating for 30 minutes at 37° C. Moreover, arithmetic average roughness (Sa) of the aforementioned five horny layer cells was then measured in the same manner followed by determination of the average value thereof.

[2] = test system: horny layer cells; test: as above; assay type: cell-based; conditions: trimethylglycine alone

Structure (SMILES): O=C(O)CO [glycolic acid]
- screening result: specular reflectance improver [1]: determined to be specular reflectance improvers
- arithmetic average roughness (Sa) of horny layer cells ([1]; concentration 4% by weight to 40% by weight, FIG. 20): decreases significantly

Structure (SMILES): COc1ccc(C(=O)[O-])c(O)c1.[K+] [potassium 4-methoxysalicylate]
- rate of decrease of arithmetic average roughness (Sa) of horny layer cells ([1]; 4-MSK at 0, 0.1, 1.0, 3.0 and 10.0% by weight, FIG. 8): dose-dependent increase in the rate of decrease of arithmetic average roughness (Sa) up to 3.0% by weight
- screening result: specular reflectance improver [1]: determined to be specular reflectance improvers
- arithmetic average roughness (Sa) of horny layer cells ([1]; concentration 3% by weight to 10% by weight, FIG. 13): decreases significantly

Structure (SMILES): O=C([O-])c1ccccc1O.[Na+] [sodium salicylate, sodium 2-hydroxybenzoate]
- screening result: specular reflectance improver [1]: determined to be specular reflectance improvers

Structure (SMILES): C[N+](C)(C)CC(=O)[O-] [trimethylglycine]
- specular reflectance of the skin [2]: confirmed to not be improved
- rate of decrease of arithmetic average roughness (Sa) of horny layer cells ([1]; TMG alone at 0, 5 and 10% by weight, FIG. 9): does not have the effect of smoothing the horny layer or improving skin glow; also recorded: no differences in the rates of decrease of arithmetic average roughness (Sa); also recorded: did not have an effect on the rate of decrease of Sa
